Measured values reported in patent publication US20100113517A1, “METHOD FOR THE TREATMENT OF FABRY DISEASE USING PHARMACOLOGICAL CHAPERONES” (AMICUS THERAPEUTICS, INC., priority 2007, published 2010).
Where two headings read alike, the source gives them in different places.

Legend:
α-Gal A [1] = test: Plasma concentration at which enzyme activity enhancement is seen (clinical and preclinical studies); format: in vivo; conditions: clinical studies and preclinical studies in mice
[2] = Phase I ascending single oral dose study, pharmacokinetics; format: in vivo, healthy volunteers (human); conditions: for half-life / Tmax / CL renal / AUC(0-inf) / AUC(0-t) / Cmax: male, human; for half-life / Tmax / AUC(0-inf) / AUC(0-t) / Cmax: plasma; for CL renal / Ae, cumulative percentage of DGJ excreted over the 12-hour postdose period: urine; for AUC(0-inf) / AUC(0-t) / Cmax: geometric mean
Protocol: This example describes a randomized, double blind, placebo controlled Phase I study of ascending single oral dose of DGJ to evaluate the safety, tolerability and pharmacokinetics of DGJ in healthy volunteers.
Study Design and Duration. […] Dose escalation to the next dose level (i.e., next group) proceeded following review of safety and tolerability of the previous group(s). Subjects were housed in the treatment facility from 14 hours prior to dosing until 24 hours after dosing. Meals were controlled by schedule and subjects remained abulatory for 4 hours post drug administration.
Study Population. Subjects were healthy, non-institutionalized, non-smoking male volunteers between 19 and 50 years of age (inclusive) consisting of members of the community at large.
Pharmacokinetic Sampling. Blood samples (10 mL each) were collected in blood collection tubes containing EDTA before dosing and at the following times thereafter: 0.25, 0.5, 0.75, 1, 1.5, 2, 3, 4, 5, 6, 8, 10, 12, 16 and 24 hours. Blood samples were cooled in an ice bath and centrifuged under refrigeration as soon as possible. Plasma samples were divided into two aliquots an dstored at […] pending assay. At the end of the study, all samples were transferred to MDS Pharma Services Analytical Laboratories (Lincoln) for analysis.
Pharmacokinetic parameters were summarised by treatment group using descriptive statistics (arithmetic means, standard deviations, coefficients of variation, sample size, minimum, maximum and median). In addition, geometric means were calculated for AUC0-t, AUCinf and Cmax.

[3] = Phase II study in Fabry patients, cardiac, renal and central nervous system function; format: in vivo, Fabry patients (human); conditions: after 12 to 48 weeks of treatment
Protocol: Study Design. A two-arm design was planned. […] In the second arm, escalating doses of 25, 100, and then 250 mg b.i.d. over 6 weeks, followed by 50 mg/day for the remainder of the study. Cardiac anaylsis. In addition to the biopsies described above, MRIs and echocardiogram with strain rate evaluations will be performed at baseline, 3 and 6 months to assess cardiac morphology (e.g., left ventricular hyertrophy) and cardiac function (e.g., congestive heart failure, ischemia, infarction, arrhythmia). […] Hypertension will also be ealuated since hypertension (associated with renal dysfunction) can increase the risk for hemorrhagic stroke.

GL-3 = test: Phase II study in Fabry patients, GL-3 levels (kidney, skin, urine, plasma); format: in vivo, Fabry patients (human)
Protocol: Study Design. A two-arm design was planned. In one arm, eligible patients were given 150 mg of DGJ-HCl every other day for 12 weeks, with an extension up to 48 weeks. In the second arm, escalating doses of 25, 100, and then 250 mg b.i.d. over 6 weeks, followed by 50 mg/day for the remainder of the study.
GL-3 deposits. Skin, kidney and heart biopsies will be performed at baseline, 3 months and six months and evaluated for GL-3 deposits in skin fibroblasts, cardiac myocytes, and various renal cells.
GL-3 levels. […] Urine and plasma GL-3 levels at baseline and after treatment as assessed by liquid chromatography mass spectrometry were available for 10 patients. […] For the few patients that had elevated levels of GL-3 in urine or plasma at baseline, the results were difficult to interpret due to high intra-patient variability.
Skin GL-3 levels at baseline and after treatment as assessed by light and electron microscopy are available for 10 patients.

α-Gal A [4] = target: T1, α-Gal A (Homo sapiens, UniProt P06280); test: Phase Ib WBC α-Gal A enzymatic activity; format: in vivo, healthy volunteers (human)
T1 construct: α-Gal A activity was calculated in white blood cells (WBC) before dosing began; endogenous in cells; host or cells: white blood cells of healthy human volunteers
T1 sequence (P06280 32-429): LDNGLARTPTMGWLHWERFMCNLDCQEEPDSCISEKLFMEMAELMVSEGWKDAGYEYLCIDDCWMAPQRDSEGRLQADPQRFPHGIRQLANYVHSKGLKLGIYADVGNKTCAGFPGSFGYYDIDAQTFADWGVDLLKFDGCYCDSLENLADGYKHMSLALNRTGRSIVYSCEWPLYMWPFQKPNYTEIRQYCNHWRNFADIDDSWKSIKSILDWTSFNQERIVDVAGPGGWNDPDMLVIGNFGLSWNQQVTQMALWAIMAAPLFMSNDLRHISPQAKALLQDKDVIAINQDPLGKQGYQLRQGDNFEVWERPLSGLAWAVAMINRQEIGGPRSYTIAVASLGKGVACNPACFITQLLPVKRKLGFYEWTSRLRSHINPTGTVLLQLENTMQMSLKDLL
Protocol: WBC α-GAL A Enzymatic Activity Sampling. Blood samples (10 mL each) were collected in blood collection tubes containing EDTA and WBC extracted before dosing and at the following times thereafter: 100 hours, 150 hours, and 336 hours. Samples were treated as described above, and WBC α-Gal A enzymatic activity levels were determined as described in Desnick, R. J. (ed) Enzyme therapy in genetic diseases. Vol 2. Alan R Liss, New York, pp 17-32. Statistical Analysis. Safety data including laboratory evaluations, physical exams, adverse events, ECG monitoring and vital signs assessments were summarized by treatment group and point of time of collection. Descriptive statistics (arithmetic mean, standard deviation, median, minimum and maximum) were calculated for quantitative safety data as well as for the difference to baseline. Frequency counts were compiled for classification of qualitative safety data. In addition, a shift table describing out of normal range shifts was provided for clinical laboratory results. A normal-abnormal shift table was also presented for physical exam results and ECGs.

Question: With `OCC1NCC(O)C(O)C1O` (stereo not shown) [DGJ, 1-deoxygalactonojirimycin] as the compound, how does the “plasma concentration at which the pharmacological effect (enzyme activity enhancement) is seen” value (α-Gal A [1]) read?
Answer: approximately 0.4 μM

Question: What about the “time of peak concentrations, on average” value ([2]; all dose levels (25-675 mg single dose)) of the same compound?
Answer: approximately 3 hours

Question: What about the “increase of AUC and Cmax with dose” value ([2]; doses increased from 25 mg to 225 mg) of the same compound?
Answer: dose-proportional manner

Question: And the half-life ([2]; oral, 25-675 mg single dose, read-out: mean half-life across all dose levels)?
Answer: 3 to 4.6 h

Question: What about the Tmax ([2]; single oral dose 25 mg) of the same compound?
Answer: 3 h

Question: What about the half-life ([2]; single oral dose 25 mg, read-out: t1/2 (converted)) of the same compound?
Answer: 3.04 h

Question: And the Tmax ([2]; single oral dose 75 mg)?
Answer: 2.92 h

Question: What about the half-life ([2]; single oral dose 75 mg, read-out: t1/2 (converted)) of the same compound?
Answer: 4.05 h

Question: What about the Tmax ([2]; single oral dose 225 mg) of the same compound?
Answer: 3.17 h

Question: What about the half-life ([2]; single oral dose 225 mg, read-out: t1/2 (converted)) of the same compound?
Answer: 4.62 h

Question: And the Tmax ([2]; single oral dose 675 mg)?
Answer: 2.67 h

Question: What about the half-life ([2]; single oral dose 675 mg, read-out: t1/2 (converted)) of the same compound?
Answer: 4.19 h

Question: What about the CL renal ([2]; oral, as doses increased from 25 mg to 675 mg, read-out: mean renal clearance) of the same compound?
Answer: 98.3 to 128 mL/min

Question: And the CL renal ([2]; single oral dose 25 mg, read-out: CLR (converted))?
Answer: 98.3 mL/min

Question: And the CL renal ([2]; single oral dose 75 mg, read-out: CLR (converted))?
Answer: 95.5 mL/min

Question: And the CL renal ([2]; single oral dose 225 mg, read-out: CLR (converted))?
Answer: 126 mL/min

Question: What about the CL renal ([2]; single oral dose 675 mg, read-out: CLR (converted)) of the same compound?
Answer: 128 mL/min

Question: What about the AUC(0-inf) ([2]; single oral dose 25 mg) of the same compound?
Answer: 1130 ng·h/mL

Question: And the AUC(0-t) ([2]; single oral dose 25 mg)?
Answer: 1090 ng·h/mL

Question: What about the Cmax ([2]; single oral dose 25 mg) of the same compound?
Answer: 201 ng/mL

Question: And the AUC(0-inf) ([2]; single oral dose 75 mg)?
Answer: 4730 ng·h/mL

Question: And the AUC(0-t) ([2]; single oral dose 75 mg)?
Answer: 4660 ng·h/mL

Question: What about the Cmax ([2]; single oral dose 75 mg) of the same compound?
Answer: 685 ng/mL

Question: What about the AUC(0-inf) ([2]; single oral dose 225 mg) of the same compound?
Answer: 11400 ng·h/mL

Question: What about the AUC(0-t) ([2]; single oral dose 225 mg) of the same compound?
Answer: 11200 ng·h/mL

Question: What about the Cmax ([2]; single oral dose 225 mg) of the same compound?
Answer: 2000 ng/mL

Question: What about the AUC(0-inf) ([2]; single oral dose 675 mg) of the same compound?
Answer: 35700 ng·h/mL

Question: And the AUC(0-t) ([2]; single oral dose 675 mg)?
Answer: 35300 ng·h/mL

Question: What about the Cmax ([2]; single oral dose 675 mg) of the same compound?
Answer: 6490 ng/mL

Question: What about the “Ae, cumulative percentage of DGJ excreted over the 12-hour postdose period” value (“Ae, cumulative percentage” for short) ([2]; single oral dose 25 mg) of the same compound?
Answer: 8.78%

Question: And the “Ae, cumulative percentage” value ([2]; single oral dose 75 mg)?
Answer: 23.4%

Question: What about the “Ae, cumulative percentage” value ([2]; single oral dose 225 mg) of the same compound?
Answer: 40.3%

Question: And the “Ae, cumulative percentage” value ([2]; single oral dose 675 mg)?
Answer: 39.6%

Question: And the “cardiac, renal and central nervous system function” value [3]?
Answer: no clinically meaningful changes

Question: And the “kidney GL-3 by electron microscopy, one patient” value (GL-3; 12 weeks of treatment, mesangial cells, glomerular endothelium, distal tubules)?
Answer: observed decrease in GL-3

Question: What about the “kidney GL-3 by electron microscopy, second patient” value (GL-3; 24 weeks of treatment, same kidney cell types, not independently conclusive (lower baseline GL-3)) of the same compound?
Answer: showed a decrease of GL-3 levels

Question: What about the “GL-3 in other kidney cell types including interstitial capillaries” value (GL-3; both patients) of the same compound?
Answer: the decreases were not significant

Question: What about the “urine and plasma GL-3 levels by liquid chromatography mass spectrometry” value (GL-3; most of 10 patients, baseline and after treatment) of the same compound?
Answer: normal or near normal both before and after treatment

Question: What about the “skin GL-3 levels by light and electron microscopy” value (GL-3; seven of 10 patients, baseline and after treatment) of the same compound?
Answer: normal or near normal both before and after treatment

Question: What about the “inhibition of WBC α-Gal A enzymatic activity” value (α-Gal A [4]; 50 mg b.i.d. or 150 mg b.i.d.) of the same compound?
Answer: did not inhibit

Question: And the “WBC α-Gal A enzymatic activity” value (α-Gal A [4]; 50 mg b.i.d., 100 hours)?
Answer: 120 % pre-dose levels

Question: And the “WBC α-Gal A enzymatic activity” value (α-Gal A [4]; 50 mg b.i.d., 150 hours)?
Answer: 130 % pre-dose levels

Question: What about the “WBC α-Gal A enzymatic activity” value (α-Gal A [4]; 50 mg b.i.d., 336 hours) of the same compound?
Answer: 145 % pre-dose levels

Question: And the “WBC α-Gal A enzymatic activity” value (α-Gal A [4]; 150 mg b.i.d., 100 hours)?
Answer: 150 % pre-dose levels

Question: What about the “WBC α-Gal A enzymatic activity” value (α-Gal A [4]; 150 mg b.i.d., 150 hours) of the same compound?
Answer: 185 % pre-dose levels

Question: What about the “WBC α-Gal A enzymatic activity” value (α-Gal A [4]; 150 mg b.i.d., 336 hours) of the same compound?
Answer: 185 % pre-dose levels
